# Laboratory results taken from US20240246941A1, “SUBSTITUTED 4-(3-AMINOPROP-1-YL)AMINOQUINOLINE ANALOGS AS MODULATORS OF MELANOMA-ASSOCIATED ANTIGEN 11 UBIQUITIN LIGASE” (ST. JUDE CHILDREN'S RESEARCH HOSPITAL, INC., priority 2020, published 2024).
# Like-named read-outs stand apart in the source and are kept apart here.
# Molecular target: interaction between GST-MAGEA11 MHD and FAM-PCF11_4 peptide (MAGE-A11:PCF11) (Homo sapiens (Human), UniProt P43364)
# Assay: TR-FRET dose response competition assay for disruption of MAGE-A11:PCF11 binding
# Outline: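 Competition TR-FRET at room temperature in 50 mM Tris pH 7.5, 20 mM MgCl2, 0.1 mg/ml BSA, 1 mM DTT: final 5 nM GST-MAGEA11 MHD, 5 nM Tb-anti-GST, 200 nM FAM-PCF11_4, 90 min. Ratio 520/490 nm converted to % inhibition; IC50 from sigmoidal fit.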
# [1] = Table 8, representative compounds, read-out: TR-FRET IC50
# [2] = Dose response TR-FRET screening of nine scaffold groups against MAGE-A11:PCF11, read-out: consensus IC50
# [3] = Table 5, dose response TR-FRET screening of 59 quinoline compounds against MAGE-A11:PCF11, read-out: TR-FRET IC50
# Chain of interaction between GST-MAGEA11 MHD and FAM-PCF11_4 peptide (MAGE-A11:PCF11) (P43364 218-429): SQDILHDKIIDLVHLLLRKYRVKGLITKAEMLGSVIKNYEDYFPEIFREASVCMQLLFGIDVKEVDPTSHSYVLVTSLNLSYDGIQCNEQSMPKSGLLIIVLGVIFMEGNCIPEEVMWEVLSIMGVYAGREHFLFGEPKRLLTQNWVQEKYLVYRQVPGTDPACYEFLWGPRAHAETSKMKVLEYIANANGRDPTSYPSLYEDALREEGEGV
Compound,IC50 [1],IC50 [2],other results
COc1ccc(Oc2ccc3c(NCCCNCc4cccc5c4OCO5)ccnc3c2)cc1 [SJ000311220],43.7 µM,,
COc1ccc(Oc2ccc3c(NCCCNCc4cc(F)ccc4OC)ccnc3c2)cc1 [SJ000311221-1],,46.4 µM,
COc1ccc(Oc2ccc3c(NCCCNCc4cc(F)ccc4OC)ccnc3c2)cc1 [SJ000311221],46.5 µM,,
COc1cccc(CNCCCNc2ccnc3cc(Oc4ccc(F)cc4)ccc23)c1O [SJ000311223-1],,61.9 µM,
COc1cccc(CNCCCNc2ccnc3cc(Oc4ccc(F)cc4)ccc23)c1O [SJ000311223],61.9 µM,,
Fc1ccc(Oc2ccc3c(NCCCNCc4cccc5c4OCO5)ccnc3c2)cc1 [SJ000311224-1],,59.6 µM,
Fc1ccc(Oc2ccc3c(NCCCNCc4cccc5c4OCO5)ccnc3c2)cc1 [SJ000311224],59.6 µM,,
COc1ccc(F)cc1CNCCCNc1ccnc2cc(Oc3ccc(F)cc3)ccc12 [SJ000311225-1],,69.9 µM,
COc1ccc(F)cc1CNCCCNc1ccnc2cc(Oc3ccc(F)cc3)ccc12 [SJ000311225],69.9 µM,,
Clc1ccc(Oc2ccc3c(NCCCNCc4ccco4)ccnc3c2)cc1 [SJ000311226-1],,,IC50 [3]: > 70 µM
COc1cccc(CNCCCNc2ccnc3cc(Oc4ccc(Cl)cc4)ccc23)c1O [SJ000311227-1],,20.7 µM,
COc1cccc(CNCCCNc2ccnc3cc(Oc4ccc(Cl)cc4)ccc23)c1O [SJ000311227],20.7 µM,,
Clc1ccc(Oc2ccc3c(NCCCNCc4cccc5c4OCO5)ccnc3c2)cc1 [SJ000311228-1],,17.7 µM,
Clc1ccc(Oc2ccc3c(NCCCNCc4cccc5c4OCO5)ccnc3c2)cc1 [SJ000311228],17.7 µM,,
COc1ccc(F)cc1CNCCCNc1ccnc2cc(Oc3ccc(Cl)cc3)ccc12 [SJ000311229-1],,19.7 µM,
COc1ccc(F)cc1CNCCCNc1ccnc2cc(Oc3ccc(Cl)cc3)ccc12 [SJ000311229],19.7 µM,,
CN(C)c1cccc(Oc2ccc3c(NCCCNCc4ccco4)ccnc3c2)c1 [SJ000311230-1],,,IC50 [3]: > 70 µM
COc1cccc(CNCCCNc2ccnc3cc(Oc4cccc(N(C)C)c4)ccc23)c1O [SJ000311231-1],,69.9 µM,
COc1cccc(CNCCCNc2ccnc3cc(Oc4cccc(N(C)C)c4)ccc23)c1O [SJ000311231],69.9 µM,,
CN(C)c1cccc(Oc2ccc3c(NCCCNCc4cccc5c4OCO5)ccnc3c2)c1 [SJ000311232-1],,69.9 µM,
CN(C)c1cccc(Oc2ccc3c(NCCCNCc4cccc5c4OCO5)ccnc3c2)c1 [SJ000311232],69.9 µM,,

Compound,IC50 [1],IC50 [2],other results
COc1ccc(F)cc1CNCCCNc1ccnc2cc(Oc3cccc(N(C)C)c3)ccc12 [SJ000311233-1],,5.63 µM,
COc1ccc(F)cc1CNCCCNc1ccnc2cc(Oc3cccc(N(C)C)c3)ccc12 [SJ000311233],5.63 µM,,
CC(C)(C)c1ccc(Oc2ccc3c(NCCCNCc4ccco4)ccnc3c2)cc1 [SJ000311234-1],,,IC50 [3]: 32.1 µM
COc1cccc(CNCCCNc2ccnc3cc(Oc4ccc(C(C)(C)C)cc4)ccc23)c1O [SJ000311235-1],,7.65 µM,
COc1cccc(CNCCCNc2ccnc3cc(Oc4ccc(C(C)(C)C)cc4)ccc23)c1O [SJ000311235],7.65 µM,,
CC(C)(C)c1ccc(Oc2ccc3c(NCCCNCc4cccc5c4OCO5)ccnc3c2)cc1 [SJ000311236-1],,8.67 µM,
CC(C)(C)c1ccc(Oc2ccc3c(NCCCNCc4cccc5c4OCO5)ccnc3c2)cc1 [SJ000311236],8.67 µM,,
COc1ccc(F)cc1CNCCCNc1ccnc2cc(Oc3ccc(C(C)(C)C)cc3)ccc12 [SJ000311237-1],,6.29 µM,
COc1ccc(F)cc1CNCCCNc1ccnc2cc(Oc3ccc(C(C)(C)C)cc3)ccc12 [SJ000311237],6.29 µM,,
COc1cccc(CNCCCNc2ccnc3cc(-c4ccc(F)cc4)ccc23)c1O [SJ000311239-1],,33.3 µM,
COc1cccc(CNCCCNc2ccnc3cc(-c4ccc(F)cc4)ccc23)c1O [SJ000311239],33.3 µM,,
Fc1ccc(-c2ccc3c(NCCCNCc4cccc5c4OCO5)ccnc3c2)cc1 [SJ000311240-1],,25 µM,
Fc1ccc(-c2ccc3c(NCCCNCc4cccc5c4OCO5)ccnc3c2)cc1 [SJ000311240],25 µM,,
COc1ccc(F)cc1CNCCCNc1ccnc2cc(-c3ccc(F)cc3)ccc12 [SJ000311241-1],,38.9 µM,
COc1ccc(F)cc1CNCCCNc1ccnc2cc(-c3ccc(F)cc3)ccc12 [SJ000311241],38.9 µM,,
COc1cccc(CNCCCNc2ccnc3cc(Cc4ccc(F)cc4)ccc23)c1O [SJ000311243-1],,43.6 µM,
COc1cccc(CNCCCNc2ccnc3cc(Cc4ccc(F)cc4)ccc23)c1O [SJ000311243],43.6 µM,,
Fc1ccc(Cc2ccc3c(NCCCNCc4cccc5c4OCO5)ccnc3c2)cc1 [SJ000311244-1],,42.3 µM,
Fc1ccc(Cc2ccc3c(NCCCNCc4cccc5c4OCO5)ccnc3c2)cc1 [SJ000311244],42.3 µM,,
COc1ccc(F)cc1CNCCCNc1ccnc2cc(Cc3ccc(F)cc3)ccc12 [SJ000311245-1],,35.1 µM,
COc1ccc(F)cc1CNCCCNc1ccnc2cc(Cc3ccc(F)cc3)ccc12 [SJ000311245],35.1 µM,,

Compound,IC50 [1],IC50 [2],other results
COc1cccc(CNCCCNc2ccnc3cc(CCC(C)C)ccc23)c1O [SJ000311247-1],,69.9 µM,
COc1cccc(CNCCCNc2ccnc3cc(CCC(C)C)ccc23)c1O [SJ000311247],69.9 µM,,
CC(C)CCc1ccc2c(NCCCNCc3cccc4c3OCO4)ccnc2c1 [SJ000311248-1],,27.7 µM,
CC(C)CCc1ccc2c(NCCCNCc3cccc4c3OCO4)ccnc2c1 [SJ000311248],27.7 µM,,
COc1ccc(F)cc1CNCCCNc1ccnc2cc(CCC(C)C)ccc12 [SJ000311249-1],,69.9 µM,
COc1ccc(F)cc1CNCCCNc1ccnc2cc(CCC(C)C)ccc12 [SJ000311249],69.9 µM,,
c1coc(CNCCCNc2ccnc3cc(CC4CCCCC4)ccc23)c1 [SJ000311250-1],,,IC50 [3]: 54.9 µM
COc1cccc(CNCCCNc2ccnc3cc(CC4CCCCC4)ccc23)c1O [SJ000311251-1],,29.2 µM,
COc1cccc(CNCCCNc2ccnc3cc(CC4CCCCC4)ccc23)c1O [SJ000311251],29.2 µM,,
c1cc(CNCCCNc2ccnc3cc(CC4CCCCC4)ccc23)c2c(c1)OCO2 [SJ000311252-1],,16 µM,
c1cc(CNCCCNc2ccnc3cc(CC4CCCC4)ccc23)c2c(c1)OCO2 [SJ000311252],16 µM,,
COc1ccc(F)cc1CNCCCNc1ccnc2cc(CC3CCCCC3)ccc12 [SJ000311253-1],,26.3 µM,
COc1ccc(F)cc1CNCCCNc1ccnc2cc(CC3CCCCC3)ccc12 [SJ000311253],26.3 µM,,
COc1cccc(CNCCCNc2ccnc3cc(CCc4ccccc4)ccc23)c1O [SJ000311255-1],,26.5 µM,
COc1cccc(CNCCCNc2ccnc3cc(CCc4ccccc4)ccc23)c1O [SJ000311255],26.6 µM,,
COc1ccc(F)cc1CNCCCNc1ccnc2cc(CCc3ccccc3)ccc12 [SJ000311256-1],,37.1 µM,
COC1CCCC(F)CC1CNCCCNc1ccnc2cc(CCc3ccccc3)ccc12 (centres unmarked) [SJ000311256],37.1 µM,,
c1ccc(CCc2ccc3c(NCCCNCc4cccc5c4OCO5)ccnc3c2)cc1 [SJ000311257-1],,62.3 µM,
c1ccc(CCc2ccc3c(NCCCNCc4cccc5c4OCO5)ccnc3c2)cc1 [SJ000311257],62.3 µM,,
COc1cccc(CNCCCNc2ccnc3cc(CC(C)C)ccc23)c1O [SJ000311259-1],,68.5 µM,
